Measurements reported in US9809562B2, “NAT10 modulators for treating or preventing laminopathies, aging and cancer” (CAMBRIDGE ENTERPRISE LIMITED, priority 2014, dated 2017).

Tested on: HGPS cells (γH2AX, autophosphorylated ATM)
Assay: DNA damage markers in HGPS cells (western blotting, IF)
Type: cell-based, human
Conditions: Remodelin 1 μM
Experimental: The following KAT and KDAC inhibitors were used in the nuclear shape rescue screen, incubating cells with the molecules for 16 hours: trichostatin A (1 μM), sodium butyrate (5 mM), tubacin (10 μM), SAHA (5 μM), curcumin (10 μM), garcinol (50 μM), anacardic acid (1 μM), MB-3 (5 μM), 4-(4-chlorophenyl)-2-(2-cyclopentylidenehydrazinyl)thiazole (Compound 2) (50 μM), 4-(4-chlorophenyl)-2-(2-cyclopentylidene-1-(prop-2-yn-1-yl)hydrazinyl)thiazole (Compound 3) (50 μM) and cyclopentylidene-[4-(4-cyanophenyl)thiazol-2-yl)hydrazine (Compound 1) (Remodelin) (10 to 50 μM). For HGPS cellular fitness assays, Remodelin was incubated at 1 μM for 1 to 10 days, renewing the medium every 3 days. For long-term senescence assay, cells were kept and passaged in medium containing 1 μM Remodelin or DMSO only for 12 population doublings. Senescence was assessed after 8 days of Remodelin treatment when cells were at Population Doubling 12, and then after several weeks of Remodelin treatment, when cells reached Population Doubling 24 using the Senescence β-Galactosidase Staining Kit #9860 from Cell Signaling. […]
Total cell extracts were prepared by scraping cells in SDS lysis buffer (4% SDS, 20% glycerol, and 120 mM Tris-HCl, pH 6.8), boiling for 5 minutes at 95° C., followed by 10 strokes through a 25-gauge needle. […] Detection and quantification was performed with an imager (Odyssey; LI-COR Biosciences). […]

N#Cc1ccc(-c2csc(NN=C3CCCC3)n2)cc1 [Compound 1, 4-(4-Cyanophenyl)-2-(2-cyclopentylidenehydrazinyl)thiazole]
steady-state DNA damage markers (γH2AX, autophosphorylated ATM): decreased steady-state levels of γH2AX and autophosphorylated ATM
